Measured values as given in patent publication US11141404B1, “Formulations and methods for treating acute cannabinoid overdose” (Anebulo Pharmaceuticals, Inc., priority 2020, dated 2021).

Key:
Type in all cases: in vivo
C57 mice = experiment: Reversal of THC-induced hypolocomotion in mice; conditions: 30 min pre-test, THC 3 mg/kg ip 10 min pre-test
Procedure: Reversal of THC-induced hypolocomotion in mice: Six C57 mice (Charles River, Wilmington, Mass.) were administered Δ9-tetrahydrocannabinol (THC) 3 mg/kg ip, 10 min pre-test. […] In this apparatus, four qualitatively different measures of locomotor activity are automatically scored. […] The magnitude of the effect is similar to that elicited by rimonabant given at 3 mg/kg po, and given 30 min pre-test.

rat = experiment: Repeated dose (28 day) toxicity study in rat; conditions: 28 day repeated dose
Procedure: (§1) Repeated dose (28 day) toxicity studies were conducted using ANEB-001 in two species, rat and primate, selected on the basis of acceptable bioavailability and comparison of metabolite profiles with those in human liver microsomes.

[1] = Single ascending oral dose pharmacokinetics in humans; conditions: human plasma, single oral dose 1-200 mg
Procedure: Human subjects were assigned to six different dosage groups of ANEB-001. Groups assigned to receive dosages of 1 mg, 5 mg, 25 mg, 100 mg, or 200 mg had six subjects each, and the 150 mg dosage group had four subjects. ANEB-001 was administered orally to subjects in each group, and the plasma concentration of ANEB-001 in each subject was measured as a function of time after dosing (FIG. 2).

cynomolgus monkey = experiment: Repeat dose (28 day) toxicity study in cynomolgus monkey; conditions: 28 day repeat dose, 160 mg/kg/day
Procedure: as §1

| Structure (SMILES) | action of THC on the total active time parameter of locomotor measures (C57 mice; 30 mg/kg orally, 15 min in locomotor activity cages, FIG. 1) | no observed adverse effect level (rat) [mg/kg/day] | hepatic findings (rat; 75 mg/kg/day) | adverse effects at the highest dose tested (rat; highest dose 75 mg/kg/day) | Tmax [1] [h] | half-life ([1]; read-out: terminal elimination half-life) [h] | adverse effects at the highest dose level studied (cynomolgus monkey) | magnitude of the effect on THC-induced hypolocomotion (total active time), compared with ANEB-001 (C57 mice; 3 mg/kg po) |
| --- | --- | --- | --- | --- | --- | --- | --- | --- |
| CC(C)(C)NC(=O)N1CC(O[C@H](c2ccc(Cl)cc2)c2ccccc2C(F)(F)F)C1 [ANEB-001, 3-[(R)-2-(trifluoromethyl)-4′-chlorobenzhydryloxy]-N-(tert-butyl)azetidine-1-carboxamide] | significantly reversed | 75 | hepatic changes consistent with an adaptive response | No adverse effects were observed | 1 to 1.6 | ≤ 456 | no adverse effects were observed | – |
| Cc1c(C(=O)NN2CCCCC2)nn(-c2ccc(Cl)cc2Cl)c1-c1ccc(Cl)cc1 [rimonabant, reference compound] | – | – | – | – | – | – | – | similar |
